Source: patent EP0179667B1, “N6-substituted adenosines” (priority 1984, dated 1986)

What was measured:
adenosine A1 receptor = biological target: T1, adenosine A1 receptor (Rattus norvegicus, UniProt P25099); assay: Adenosine Receptor Binding - A1 Receptor Affinity (RBA1); conditions: [3H]-CHA, rat whole brain membranes; read-out: RBA-1
T1 construct: Whole brain minus cerebellum and brainstem from male Long Evans rats (150-200 g) was homogenized; from tissue; host or cells: rat whole brain minus cerebellum and brainstem, membrane homogenate
T1 sequence (P25099 1-326): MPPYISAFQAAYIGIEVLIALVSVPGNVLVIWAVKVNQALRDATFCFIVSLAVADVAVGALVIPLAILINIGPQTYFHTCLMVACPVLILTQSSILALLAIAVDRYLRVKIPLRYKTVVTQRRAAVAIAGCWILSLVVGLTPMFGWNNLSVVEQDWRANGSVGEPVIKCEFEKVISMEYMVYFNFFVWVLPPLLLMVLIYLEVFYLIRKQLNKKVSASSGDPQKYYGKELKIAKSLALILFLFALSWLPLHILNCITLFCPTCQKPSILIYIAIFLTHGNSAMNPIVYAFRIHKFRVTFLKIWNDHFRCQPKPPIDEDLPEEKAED
Experimental: Adenosine Receptor Binding - A1 Receptor Affinity (RBA1)
Whole brain minus cerebellum and brainstem from male Long Evans rats (150-200 g) was homogenized in 30 volumes of ice-cold 0.05 M Tris-HCI buffer pH 7.7 using a Brinkman Polytron PT-10 (setting number 6 for 20 seconds) and centrifuged for ten minutes at 20,000 x g (Sorvall RC-2), 4°C. The supernatant was discarded, and the pellet was resuspended and centrifuged as before. The pellet was resuspended in 20 ml Tris-HCI buffer containing two International Units/ml of adenosine deaminase (Sigma type III from calf intestinal mucosa), incubated at 37°C for 30 minutes, then subsequently at 0°C for ten minutes. The homogenate was again centrifuged, and the final pellet was resuspended in ice-cold 0.05 M Tris-HCI buffer pH 7.7 to a concentration of 20 mg/ml original wet tissue weight and used immediately.
Tissue homogenate (10 mg/ml) was incubated in 0.05 M Tris-HCI buffer pH 7.7 containing 1.0 nM [^3H]-N^6-cyclohexyladenosine (^3H]-CHA) with or without test agents in triplicate for one hour at 25°C. Incubation volume was 2 ml. Unbound [^3H]-CHA was separated by rapid filtration under reduced pressure through Whatman glass fiber (GF/B) filters. The filters were rinsed three times with 5 ml of ice cold 0.05 M Tris-HCI buffer pH 7.7. The radio-labeled ligand retained on the filter was measured by liquid scintillation spectrophotometry after shaking the filters for one hour or longer on a mechanical shaker in 10 ml of Beckman Ready Solv HP scintillation cocktail.
Nonspecific binding was defined as the binding which occurred in the presence of 1 mM thophylline. […] The Scatchard plot was calculated by linear regression of the line obtained by plotting the amount of radioligand bound (pmoles/gram of tissue) versus [formula] Since the amount of radioligand bound was a small fraction of the total amount added, free radioligand was defined as the concentration (nM) of radioligand added to the incubation mixture. The Hill coefficient was calculated by linear regression of the line obtained by plotting the log of the bound radioligand vs the log of the [formula] The maximal number of binding sites (Bmax) was calculated from the Scatchard plot.

adenosine A2 receptor = biological target: T2, adenosine A2 receptor (Rattus norvegicus, UniProt P30543); assay: Adenosine Receptor Binding - A2 Receptor Affinity (RBA2); conditions: [3H]NECA, rat striatal membranes; read-out: RBA-2
T2 construct: 5 mg original tissue weight of rat weight of rat striatal membranes; tissue Pel-Freez (Rogers, Arkansas); host or cells: rat striatum, membrane preparation
Experimental: Adenosine Receptor Binding - A2 Receptor Affinity (RBA2)
Brains from 200-500 g mixed sex Sprague-Dawley rats were purchased from Pel-Freez (Rogers, Arkansas). […] Brains were thawed and then kept on ice while the striata were dissected out. […] When needed, tissue was thawed at room temperature, disrupted in a Polytron, and kept on ice until used.
All incubations were for 60 minutes at 25°C in 12x75 mm glass tubes containing 1 ml Tris with 5 mg original tissue weight of rat weight of rat striatal membranes, 4 nM [^3H]-N-ethyl adenosine-5'-carboxamide ([^3H]NECA), 50 nM N^6-cyclopentyladenosine (to eliminate A1 receptor binding), 10 mM MgCl2, 0.1 units/ml of adenosine deaminase and 1% dimethylsulfoxide. N^6-Cyclopentyladenosine was dissolved at 10 mM in 0.02 N HCI and diluted in Tris. […] Test compounds were dissolved at 10 mM in dimethylsulfoxide on the same day as the experiment, and diluted in dimethylsulfoxide to 100x the final incubation concentration. […] [^3H]NECA was diluted to 40 nM in Tris. The membrane suspension (5 mg/0.79 ml) contained sufficient MgC12 and adenosine deaminase to give 10 mM and 0.1 units/ml, respectively, final concentration in the incubation. For test compounds with lC50 values less than 1 µM, the order of additions was test compound (10 µl), N^6-cyclopentyladenosine (100 µl), [^3H]NECA (100 µl), and membranes (0.79 ml). […] After all additions, the rack of tubes was vortexed, and the tubes were then incubated for 60 min at 25°C in a shaking water bath. The rack of tubes was vortexed an additional time halfway through the incubation.
incubations were terminated by filtration through 2.4 cm GF/B filters under reduced pressure. Each tube was filtered as follows: the contents of the tube were poured onto the filter, 4 ml of ice-cold Tris were added to the tube and the contents poured onto the filter, and the filter was washed twice with 4 ml of ice-cold Tris. The filtration was complete in about twelve seconds.
Nonspecific binding was defined as binding in the presence of 100 µM N^6-cyclopentyladenosine, and specific binding was defined as total binding minus nonspecific binding. The IC50 was calculated by weighed nonlinear least squares curve-fitting to the mass-action equation. [formula] • where Y is cpm bound • T is cpm total binding without drug • S is cpm specific binding without drug • D is the concentration of drug • and K is the IC50 of the drug Weighting factors were calculated under the assumption that the standard deviation was proportional to the predicted value of Y. Nonspecific binding was treated as a very large (infinite) concentration of drug in the computer analysis.

Swiss-Webster male mice = assay: Mouse Activity and Screen Test Procedure (MAST): locomotor activity in actophotometer; format: in vivo; conditions: one hour prior to testing
Experimental: Nine unfasted Swiss-Webster male mice weighing 20-30 g equally divided into three groups for each drug dose to be tested. That is, data for each dose level was generated by three separated groups of three mice each. A minimum of three dose levels (10, 30, and 100 mg/kg) are tested for each drug. Treatments are administered intraperitoneally one hour prior to testing. All dosages are calculated as parent compound and given in volumes of 10 ml/kg. […] Control animals are injected with Methocel. […] The actophotometer consists of a cylindrical chamber whose center is occupied by another cylinder which contains the illumination for six photocells located on the perimeter of the chamber. Six light-beam interruptions equal one count. […] Data: The data obtained from the screen test are expressed as percent of mice falling off the screen. Data derived from locomotor activity of drug treated mice are compared to the activity of vehicle treated animals and are expressed as percent inhibition of spontaneous locomotion. All percentages reported for inhibition of locomotion (LI) are based upon data accumulated for one hour. […] An overall dose rating is obtained by the following criteria: LAD refers to the lowest dose at which an A rating is achieved. […] The compounds are identified in the Examples.

T2 sequence (P30543 whole entry): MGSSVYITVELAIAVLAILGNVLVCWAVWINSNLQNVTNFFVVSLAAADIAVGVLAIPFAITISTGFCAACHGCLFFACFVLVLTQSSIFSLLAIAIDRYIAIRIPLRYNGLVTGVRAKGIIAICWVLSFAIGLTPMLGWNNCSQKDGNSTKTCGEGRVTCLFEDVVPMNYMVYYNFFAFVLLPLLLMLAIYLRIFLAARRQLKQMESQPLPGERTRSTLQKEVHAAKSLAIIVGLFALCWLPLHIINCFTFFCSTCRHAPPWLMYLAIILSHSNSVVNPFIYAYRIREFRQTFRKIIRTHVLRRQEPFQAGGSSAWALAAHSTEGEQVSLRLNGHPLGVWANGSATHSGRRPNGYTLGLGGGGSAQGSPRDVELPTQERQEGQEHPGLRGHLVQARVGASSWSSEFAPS

| SMILES | IC50 (adenosine A1 receptor) [nM] | IC50 (adenosine A2 receptor) [nM] | Inhibition of mouse locomotor activity (Swiss-Webster male mice; 3 mg/kg intraperitoneally) [%] | Inhibition of mouse locomotor activity (Swiss-Webster male mice; 10 mg/kg intraperitoneally) [%] | Inhibition of mouse locomotor activity (Swiss-Webster male mice; 30 mg/kg intraperitoneally) [%] | Inhibition of mouse locomotor activity (Swiss-Webster male mice; 0.3 mg/kg intraperitoneally) [%] | Inhibition of mouse locomotor activity (Swiss-Webster male mice; 1 mg/kg intraperitoneally) [%] | Inhibition of mouse locomotor activity (Swiss-Webster male mice; 0.1 mg/kg intraperitoneally) [%] | Inhibition of mouse locomotor activity (Swiss-Webster male mice; 100 mg/kg intraperitoneally) [%] |
| --- | --- | --- | --- | --- | --- | --- | --- | --- | --- |
| OC[C@H]1O[C@@H](n2cnc3c(NCC4CCCCc5ccccc54)ncnc32)[C@H](O)[C@@H]1O (some centres unmarked) [Example 28, N^6-(1-benzocycloheptyl)methyladenosine] | 208 | 1270 | 35 | 19 | 59 |  |  |  |  |
| COc1cccc2c1CCCC2Nc1ncnc2c1ncn2[C@@H]1O[C@H](CO)[C@@H](O)[C@H]1O (some centres unmarked) [Example 7, N^6-[5-Methoxy-1-aminotetralin]-adenosine] | 42 | 324 | 91 | 97 | 99 | 7 | 22 |  |  |
| OC[C@H]1O[C@@H](n2cnc3c(NC4CCCc5ccc(O)cc54)ncnc32)[C@H](O)[C@@H]1O (some centres unmarked) [Example 17] | 71 | 238 | 44 | 88 | 91 |  |  |  |  |
| OC[C@H]1O[C@H](n2cnc3c(NC4CCCc5ccccc54)ncnc32)[C@H](O)[C@@H]1O (stereo partly drawn) [Example 3, (S)-N^6-[1-Tetralinyl]-adenosine] | 403 | 2030 | 69 | 95 | 96 | 34 | 30 | 40 |  |
| COc1ccc2c(c1)C(Nc1ncnc3c1ncn3[C@@H]1O[C@H](CO)[C@@H](O)[C@H]1O)CCC2 (single isomer, unassigned) [Example 5, N6-[1-(7-Methoxy)-tetralinyl]-adenosine] | 40 | 918 | 82 | 91 |  |  | 39 |  |  |
| COc1ccc2c(c1)CCCC2Nc1ncnc2c1ncn2[C@@H]1O[C@H](CO)[C@@H](O)[C@H]1O (some centres unmarked) [Example 6, N^6-[1-(6-Methoxy)-tetralinyl]-adenosine] | 126 | 4370 | 3 | 62 | 94 |  | 22 |  | 99 |
| OC[C@H]1O[C@@H](n2cnc3c(NCC4=CCCCc5ccccc54)ncnc32)[C@H](O)[C@@H]1O [Example 26, N^6-(1-benzocycloheptenyl)methyladenosine] | 713 | 2700 | 50 | 31 | 64 |  |  |  |  |
| OC[C@H]1O[C@@H](n2cnc3c(NCC4(O)CCc5ccccc54)ncnc32)[C@H](O)[C@@H]1O (some centres unmarked) [Example 25, N^6-[2,3-dihydro-1-hydroxy-1H-inden-1-yl]methyladenosine] | 120 | 987 | −14 | 89 | 88 |  |  |  |  |
| OC[C@H]1O[C@@H](n2cnc3c(NC4CCCc5c(O)cccc54)ncnc32)[C@H](O)[C@@H]1O (some centres unmarked) [Example 16, N^6-[1-(5-hydroxy)-tetralinyl]-adenosine] | 36 | 260 | −13 | 23 | 89 |  |  |  |  |
| OC[C@H]1O[C@@H](n2cnc3c(NCC4(O)CCCCc5ccccc54)ncnc32)[C@H](O)[C@@H]1O (some centres unmarked) [Example 27, N^6-(1-hydroxy-1-benzocycloheptyl]methyladenosine] | 445 | 4010 | 1 | 33 | 33 |  |  |  |  |
| COc1ccc2c(c1)C(Nc1ncnc3c1ncn3[C@H]1O[C@H](CO)[C@@H](O)[C@H]1O)CCC2 (stereo partly drawn) [Example 9, (S)-N^6-(7-methoxy-1-tetralinyl)-adenosine] | 4550 | 50500 | −35 | −11 | −3 |  |  |  |  |
| OC[C@H]1O[C@@H](n2cnc3c(NCC4CCc5ccccc54)ncnc32)[C@H](O)[C@@H]1O (some centres unmarked) [Example 21, N^6-[2,3-dihydro-1H-inden-1-yl]methyladenosine] | 9 | 99 | 61 | 82 | 99 | −19 | 23 |  |  |
| OC[C@H]1O[C@@H](n2cnc3c(NCC4(O)CCCc5ccccc54)ncnc32)[C@H](O)[C@@H]1O (some centres unmarked) [Example 23, N^6-[1-hydroxy-1-tetralinyl]methyl adenosine] | 108 | 2850 | 19 | 16 | 77 |  |  |  |  |
